From patent US20260042764A1, “COMPOSITIONS AND METHODS FOR INHIBITION OF KRAS” (TheRas, Inc., priority 2022, published 2026) come the findings set out here.

Assay [1] deals with Capan-2 cells (KRAS G12V). Kind of assay: Cell-based pERK HTRF assay in Capan-2 cells (Biological Example 5). How it is done: (§1) Biological Example 5: Cell-based PERK HTRF assay in AsPC-1, SW1900, HPAC, Capan-2, RKN, H358, HCT116, KP-2, H1573, A549, MKN1, and HT1080 cells
(§2) The inhibition of ERK phosphorylation, as measured using the HTRF Advanced Phospho-ERK 1/2 (Thr202/Tyr204) Detection Assay kit (Perkin Elmer), was used to determine the effectiveness of test compounds in disrupting KRAS-driven protein/effector signaling in cells.
(§3) On day 1, cells were seeded into 96-well plates at 2.5×10^4 cells/well in 100 μL of complete growth media supplemented with 10% fetal bovine serum (FBS) and incubated at 37° C., in the presence of 5% CO2.
(§4) On day 2, cells were treated with compounds diluted in DMSO at 0.25% final DMSO concentration. Compounds were dosed in a 9-point concentration curve with three-fold dilution between concentrations. Cells were incubated in the presence of compound for two hours at 37° C. Following this treatment period, cells were harvested by aspirating the media, adding 40 μL of kit-supplied 1x lysis buffer per well, and shaking for 30 minutes at 250 rpm at room temperature.
(§5) Following cell lysis, samples were homogenized by pipetting up and down twenty times and 16 μL of cell lysate per well was transferred from the 96-well cell culture plate to two wells of a 384-well detection plate. A complete detection buffer was prepared by diluting D2 and Eu Cryptate antibodies 1:20 in kit-provided detection solution, 4 μL of complete detection buffer was then added to each well with lysate. Plates were incubated with gentle rocking for 24 hours at 4° C.
(§6) Following this incubation period, plates were centrifuged at 500×g for one minute and analyzed on a CLARIOstar plate reader. Data was imported into Microsoft Excel and the signal from the 665 nm channel was divided by the signal from the 620 nm channel. % pERK was calculated as: […]
(§7) Data was imported to the Prism software package (Graphpad) and EC50 values were calculated using the log (inhibitor) vs, response—variable slopc (Four parameters) model.

In the next assay the test system is AsPC-1 cells (KRAS G12D). Kind of assay: Cell-based pERK HTRF assay in AsPC-1 cells (Biological Example 5). The procedure: as §1, §2, §3, §4, §5, §6, §7
In the next assay the test system is RKN cells (KRAS G12V). Kind of assay: 3D Cell viability assay in RKN cells (Biological Example 6). The format is cell-based. Conditions: RKN (KRAS G12V) spheroids, 72 hours. The procedure: (§8) Biological Example 6: 3D Cell viability assay in AsPC-1, SW1900, HPAC, Capan-2, RKN, H358, HCT116, KP-2, H1573, A549, MKN1, and HT1080 cells
(§9) The inhibition of cellular viability as a result of test compound treatment in a spheroid assay was measured using the CellTiter-Glow 3D Cell Viability Assay (Promega).
(§10) On Day 1, 1000 cells per well were seeded in 150 μL of complete growth media supplemented with 10% fetal bovine serum (FBS) and incubated at 37° C., in the presence of 5% CO2 in 96-well ultra-low attachment microplates (Corning) for 48 hours undisturbed to allow spheroids to form.
(§11) Following spheroid formation, cells were treated with compounds diluted in DMSO at 0.25% final DMSO concentration. Compounds were dosed in a 9-point concentration curve with three-fold dilution between concentrations. Cells were incubated in the presence of compound for 72 hours at 37° C., in the presence of 5% CO2.
(§12) Following this incubation period, the kit-provided CTG reagent was allowed to equilibrate for 30 minutes at room temperature, 150 μL of equilibrated CTG reagent was added to each well, and the plate was sealed before shaking at 250 rpm for 10 minutes at room temperature to lyse the cells, 150 μL of lysate per well was transferred to a 96-well plate and luminescence was read on a CLARIOstar plate reader.
(§13) Data was imported into the Prism software package (Graphpad) and EC50 values were calculated using the log (inhibitor) vs, response—variable slope (Four parameters) model.

Assay [2] relates to SW1900 cells (KRAS G12D). Kind of assay: Cell-based pERK HTRF assay in SW1900 cells (Biological Example 5). How it is done: as §1, §2, §3, §4, §5, §6, §7
A general note: Time-resolved FRET reads energy transfer from a long-lived donor to a nearby acceptor.

The next assay deals with H358 cells (KRAS G12C). Kind of assay: 3D Cell viability assay in H358 cells (Biological Example 6). The format is cell-based. Conditions: H358 (KRAS G12C) spheroids, 72 hours. How it is done:
as §8, §9, §10, §11, §12, §13

In assay [3] the test system is SW1900 cells (KRAS G12D). Kind of assay: 3D Cell viability assay in SW1900 cells (Biological Example 6). The format is cell-based. Conditions: SW1990 (text: SW1900, KRAS G12D) spheroids, 72 hours. How it is done:
as §8, §9, §10, §11, §12, §13

The test system of assay [4] is MKN1 cells (KRAS amplification). Briefly: 3D Cell viability assay in MKN1 cells (Biological Example 6). The format is cell-based. Conditions: MKN (MKN1, KRAS amplification) spheroids, 72 hours. How it is done:
as §8, §9, §10, §11, §12, §13

The test system of assay [5] is Capan-2 cells (KRAS G12V). Briefly: 3D Cell viability assay in Capan-2 cells (Biological Example 6). The assay is classed as cell-based. To be noted: Capan-2 (KRAS G12V) spheroids, 72 hours. The procedure:
as §8, §9, §10, §11, §12, §13

The next assay has as its system HCT116 cells (KRAS G13D). Briefly: 3D Cell viability assay in HCT116 cells (Biological Example 6). Conditions: Homo sapiens, HCT-116; HCT116 (KRAS G13D) spheroids, 72 hours. The assay is classed as cell-based. How it is done:
as §8, §9, §10, §11, §12, §13

[6] abbreviates: Homo sapiens, Capan-2, Capan-2 (KRAS G12V) cells.
Where [7] appears, read: Homo sapiens, ASPC1, AsPC-1 (KRAS G12D) cells.
Where [8] appears, read: Homo sapiens, SW1990, SW1990 cells (text: SW1900, KRAS G12D).

What is called IC50 is the concentration that inhibits the measured activity by half. Higher therefore signals lower potency. For the compound `C[C@H]1Cn2nc(C(=O)N(C)C)cc2CN1c1nc(OC[C@@]23CCCN2C[C@H](F)C3)nc2c(F)c(-c3ccc(F)c4sc(N)c(C#N)c34)c(C(F)(F)F)cc12` (atropisomer, axis not shown) [Compound 610], the IC50 in assay [1] (setting [6]) is ≤ 100 nM; in the assay on AsPC-1 cells (KRAS G12D) (setting [7]), ≤ 100 nM; in the assay on RKN cells (KRAS G12V), ≤ 100 nM; in the assay on SW1900 cells (KRAS G12D) [2] (setting [8]) it was ≤ 100 nM; in the assay on H358 cells (KRAS G12C) (Homo sapiens, NCI-H358), ≤ 100 nM; with SW1900 cells (KRAS G12D) [3] (Homo sapiens), ≤ 100 nM. The IC50 in assay [4] (Homo sapiens, MKN-1) is ≤ 100 nM; in assay [5] (Homo sapiens) it was ≤ 100 nM.

Regarding `CCN(c1nc(OC[C@@]23CCCN2C[C@H](F)C3)nc2c(F)c(-c3ccc(F)c4sc(N)c(C#N)c34)c(C(F)(F)F)cc12)[C@H]1CCN(C(=O)c2ncco2)C1` (atropisomer, axis not shown) [Compound 584], the IC50 is ≤ 100 nM in [1] (setting [6]); ≤ 100 nM with AsPC-1 cells (KRAS G12D) (setting [7]); ≤ 100 nM with RKN cells (KRAS G12V); ≤ 100 nM in the assay on SW1900 cells (KRAS G12D) [2] (setting [8]); ≤ 100 nM in the assay with H358 cells (KRAS G12C) (Homo sapiens, NCI-H358); ≤ 100 nM with SW1900 cells (KRAS G12D) [3] (Homo sapiens). Further, the IC50 in assay [4] (Homo sapiens, MKN-1) is ≤ 100 nM; in assay [5] (Homo sapiens), ≤ 100 nM.

As to `CCN(c1nc(OCC23CCCN2CC(F)C3)nc2c(F)c(-c3ccc(F)c4sc(N)c(C#N)c34)c(C(F)(F)F)cc12)C1CC(C)N(C(=O)N2CC(F)C2)C1` (centres unmarked) [Compound 759], the IC50 is ≤ 100 nM in assay [1] (Capan-2 (KRAS G12V) cells); ≤ 100 nM in the assay with AsPC-1 cells (KRAS G12D) (AsPC-1 (KRAS G12D) cells); ≤ 100 nM in the assay with RKN cells (KRAS G12V); ≤ 100 nM with SW1900 cells (KRAS G12D) [2] (SW1990 cells (text: SW1900, KRAS G12D)); ≤ 100 nM in the assay on H358 cells (KRAS G12C); ≤ 100 nM with SW1900 cells (KRAS G12D) [3]. Also, the IC50 in [4] and in assay [5] was ≤ 100 nM each time.

Turning to `CCN(c1nc(OC[C@@]23CCCN2C[C@H](F)C3)nc2c(F)c(-c3ccc(F)c4sc(N)c(C#N)c34)c(C(F)(F)F)cc12)[C@H]1C[C@H](C)N(C(=O)N2CC(OC)C2)C1` (atropisomer, axis not shown) [Compound 764], the half-maximal inhibitory concentration (IC50) is ≤ 100 nM in assay [1] (setting [6]); ≤ 100 nM in the assay with AsPC-1 cells (KRAS G12D) (setting [7]); ≤ 100 nM in the assay with RKN cells (KRAS G12V); ≤ 100 nM with SW1900 cells (KRAS G12D) [2] (setting [8]); ≤ 100 nM in the assay with H358 cells (KRAS G12C) (Homo sapiens, NCI-H358); ≤ 100 nM in the assay with SW1900 cells (KRAS G12D) [3] (Homo sapiens). Moreover, the IC50 in assay [4] (Homo sapiens, MKN-1) is ≤ 100 nM; in [5] (Homo sapiens), ≤ 100 nM.

In the case of `CCN(c1nc(OC[C@@]23CCCN2C[C@H](F)C3)nc2c(F)c(-c3ccc(F)c4sc(N)c(C#N)c34)c(C(F)(F)F)cc12)[C@H]1CC(=O)N2CCC[C@@H]12` (atropisomer, axis not shown; (aS)) [Compound 697, 2-amino-4-((S)-4-(ethyl((1S,7aS)-3-oxohexahydro-1H-pyrrolizin-1-yl)amino)-8-fluoro-2-(((2R,7aS)-2-fluorotetrahydro-1H-pyrrolizin-7a(5H)-yl)methoxy)-6-(trifluoromethyl)quinazolin-7-yl)-7-fluorobenzo[b]thiophene-3-carbonitrile], the IC50 in assay [1] (setting [6]) was ≤ 100 nM; in the assay on AsPC-1 cells (KRAS G12D) (setting [7]), ≤ 100 nM; in the assay on RKN cells (KRAS G12V) it was ≤ 100 nM; in the assay on SW1900 cells (KRAS G12D) [2] (setting [8]) it was ≤ 100 nM; in the assay with H358 cells (KRAS G12C) (Homo sapiens, NCI-H358), ≤ 100 nM; with SW1900 cells (KRAS G12D) [3] (Homo sapiens), ≤ 100 nM. Besides, the IC50 is ≤ 100 nM in [4] (Homo sapiens, MKN-1); ≤ 100 nM in [5] (Homo sapiens); 100 to 1000 nM in the assay with HCT116 cells (KRAS G13D).
